Converted amounts (≈) assume the structure as drawn. Read-outs that look alike come from different tables or passages of the source. Residues, ends and D or L forms follow the SMILES beside them.
Legend:
S. cerevisiae Pma1 = S. cerevisiae Pma1 (Saccharomyces cerevisiae, UniProt P05030); assay: ATP hydrolysis assay, S. cerevisiae plasma membranes containing Pma1; type: biochemical; set-up: containing the full-length cDNA of the S. cerevisiae plasma membrane H^+-ATPase isoform PMA1; made in house; host or cells: S. cerevisiae RS72 (PMA1 cDNA under PMA1 promoter); also wild-type S. cerevisiae ATCC 9763; settings: for Selectivity toward Pma1 than toward SERCA or Na^+,K^+-ATPase / Selectivity for Pma1 over SERCA / Selectivity for Pma1 over Na^+,K^+-ATPase: from IC50 of Table 2
Description: Plasma membranes containing Pma1 were isolated from S. cerevisiae RS72 cells containing the full-length cDNA of the S. cerevisiae plasma membrane H^+-ATPase isoform PMA1 under the control of the PMA1 promoter, as described in reference.
A 100-ml overnight culture in YPD medium [10 g/liter yeast extract (BD, Sparks, MD), 20 g/liter Bacto peptone (BD), 20 g/liter D-(+)-glucose] was transferred to 1 liter YPD medium and grown at room temperature and 150 rpm for 18 h for wild-type S. cerevisiae (ATCC 9763) and 7 h for C. albicans. The cells were harvested and washed in Milli-Q H2O by centrifugation at 3,360 × g. The cells were glucose activated by the addition of 10% D-(+)-glucose for 10 min while shaking. The cells were then centrifuged at 3,360 × g for 3 min and frozen. Cells (60 to 80 g, wet weight) were then disrupted by bead beating (BioSpec, Bartlesville, OK) and processed as described in reference to prepare the plasma membranes. […] All batches were validated by ATPase hydrolysis activity, pH optimum, and orthovanadate sensitivity.
The protein activity levels were determined by measuring the amount of free phosphate produced from the ATP hydrolysis reaction. The assay was performed as described in reference. Each well contained ATPase enzyme, 2 μl of inhibitor (usually in the range of 333 to 0.01 μM) dissolved in dimethyl sulfoxide (DMSO) (Duchefa Biochemie, Haarlem, The Netherlands), and an assay buffer dependent on the enzyme for a final volume of 60 μl. Possible compound precipitation in the assay buffer was monitored using a Nephelostar plate reader measuring turbidity, and the information was taken into account in the IC50 determination. Pma1 assay buffer consisted of 20 mM 3-(N-morpholino)propanesulfonic acid (MOPS)–NaOH, pH 6.5 or 7.0, 8 mM MgSO4, 50 mM KNO3 (a vacuolar ATPase inhibitor), 25 mM sodium azide (a mitochondrial ATPase inhibitor), and 250 μM sodium molybdate (an acid phosphatase inhibitor). SERCA buffer consisted of 9 mM MOPS-NaOH, pH 7, 2.7 mM MgCl2, 90 μM CaCl2, and 72 mM KCl. Na^+,K^+-ATPase buffer consisted of 30 mM MOPS-NaOH, pH 7, 40 mM NaCl, 4 mM MgCl2, and 20 mM KCl. The concentration of protein was adjusted to obtain a signal of the optical density at 860 nm (OD860) of between 0.5 and 1.0 in the untreated samples (for all Pma1 batches, ∼1 to 2 μg/well; for SERCA and Na^+,K^+-ATPase, ∼0.1 to 0.2 μg/well). […]

Hep-G2 cells = assay: cells; type: cell-based, human
Description: In a tissue culture-treated 96-well plate (catalog number 655180; Grenier), 10,000 human hepatocyte Hep-G2 cells (catalog number 85011430; Sigma-Aldrich) were plated in 200 μl growth medium (Eagle minimal essential medium; catalog number M2279; Sigma-Aldrich), 2 mM L-glutamine (catalog number 03-020-1B; Biological Industries), 1% nonessential amino acids (catalog number XC-E1154/100; Biosera), 10% fetal bovine serum (catalog number BI-04-007-1A; Biological Industries) and incubated overnight at 37°C in 5% CO2. On the next day, fresh growth medium plus 2 μl compound in DMSO was added. The plate was incubated for a further 24 h at 37°C in 5% CO2. The medium was replaced with 100 μl freshly prepared 0.5 mg/ml 2,3-bis(2-methoxy-4-nitro-5-sulfophenyl)-5-[(phenylamino)carbonyl]-2H-tetrazolium hydroxide, sodium salt, solution (catalog number X4251; Sigma-Aldrich) in RPMI 1640 medium (catalog number R7509; Sigma-Aldrich) with 3.83 μg/ml phenazine methosulfate (catalog number P9625; Sigma-Aldrich) and incubated for 2 to 3 h at 37°C in 5% CO2. The color reaction was measured on a Victor X5 plate reader (PerkinElmer) by determination of the OD450 and the half-maximal (50%) effective concentration (EC50) was calculated.

[1] = tested on: Aspergillus flavus ATCC MYA-1005; assay: microbe, parasite or virus in culture; type: cell-based; settings: read-out: MIC for growth inhibition, A. flavus
Description: (§1) The following fungal isolates were used: Saccharomyces cerevisiae ATCC 9763, Candida albicans SC5314, Candida parapsilosis ATCC 22019, Candida tropicalis Ct016, Candida glabrata ATCC 90030, Aspergillus fumigatus ATCC 13073, and Aspergillus flavus ATCC MYA-1005. Frozen stocks of yeast isolates in glycerol (final concentration, 20%) were prepared by growing the cells to log phase in YPD medium at 30°C and 150 rpm. Frozen stocks of mold spores were prepared by harvesting spores from 7-day-old potato glucose agar plates in phosphate-buffered saline, 0.1% Tween 80 and aliquoting these spores in the presence of glycerol (final concentration, 20%). The cells were stored at −80°C. The cells or spores were thawed and diluted to a final concentration of 0.5 × 10^5 to 2.5 × 10^5 CFU/ml in sterile Milli-Q H2O. […] The plate was incubated for 20 to 24 h at 34°C (72 h for molds), and the OD490 was measured on a Victor X5 (PerkinElmer) plate reader. Mold growth assay plates were also visually inspected. The MIC was defined as the lowest concentration inhibiting the visual growth of the microorganism. Standard errors were typically below 5%.

[2] = tested on: Saccharomyces cerevisiae ATCC 9763; assay: microbe, parasite or virus in culture; type: cell-based; settings: read-out: MIC for growth inhibition, S. cerevisiae
Description: as §1

S. cerevisiae = assay: Medium acidification assay, S. cerevisiae; type: cell-based, Saccharomyces cerevisiae; settings: 50% inhibition of medium acidification, 12 min, n = 2 to 3
Description: Frozen stocks of C. albicans and S. cerevisiae were transferred to YPD agar plates and incubated overnight at 34°C. On the next day, the cells were suspended and washed twice in 50 mM KCl, pH 6.7, after pelleting of the cells by centrifugation at 3,000 × g for 5 min. The cells were then starved overnight at 4°C in the KCl solution. […] The pH drop was then monitored by determination of the fluorescent signal with excitation at 485 nm and emission at 538 nm on a Fluoroskan Ascent plate reader (Thermo Fisher Scientific) for 12 min. The rate of medium acidification was calculated on the basis of the slope of the drop in fluorescence.

[3] = Table 1, ATP hydrolysis at pH 7, 2 to 3 experiments, read-out: IC50 Pma1
[4] = Homo sapiens, HepG2, 24 h, medium with 10% fetal bovine serum, XTT readout, read-out: EC50 for Hep-G2 cells at 24 h
[5] = Saccharomyces cerevisiae, ATCC9763, Table 3
[6] = Saccharomyces cerevisiae, 0.2 h
[7] = Table 2, pH 7, n = 2, read-out: IC50 for ATP hydrolysis, S. cerevisiae Pma1
[8] = ATP hydrolysis, S. cerevisiae Pma1, read-out: IC50 for Pma1
[9] = Table 1, ATP hydrolysis at pH 6.5 (compounds marked b), 2 to 3 experiments, read-out: IC50 Pma1

Chain of S. cerevisiae Pma1 (P05030 whole entry, canonical isoform): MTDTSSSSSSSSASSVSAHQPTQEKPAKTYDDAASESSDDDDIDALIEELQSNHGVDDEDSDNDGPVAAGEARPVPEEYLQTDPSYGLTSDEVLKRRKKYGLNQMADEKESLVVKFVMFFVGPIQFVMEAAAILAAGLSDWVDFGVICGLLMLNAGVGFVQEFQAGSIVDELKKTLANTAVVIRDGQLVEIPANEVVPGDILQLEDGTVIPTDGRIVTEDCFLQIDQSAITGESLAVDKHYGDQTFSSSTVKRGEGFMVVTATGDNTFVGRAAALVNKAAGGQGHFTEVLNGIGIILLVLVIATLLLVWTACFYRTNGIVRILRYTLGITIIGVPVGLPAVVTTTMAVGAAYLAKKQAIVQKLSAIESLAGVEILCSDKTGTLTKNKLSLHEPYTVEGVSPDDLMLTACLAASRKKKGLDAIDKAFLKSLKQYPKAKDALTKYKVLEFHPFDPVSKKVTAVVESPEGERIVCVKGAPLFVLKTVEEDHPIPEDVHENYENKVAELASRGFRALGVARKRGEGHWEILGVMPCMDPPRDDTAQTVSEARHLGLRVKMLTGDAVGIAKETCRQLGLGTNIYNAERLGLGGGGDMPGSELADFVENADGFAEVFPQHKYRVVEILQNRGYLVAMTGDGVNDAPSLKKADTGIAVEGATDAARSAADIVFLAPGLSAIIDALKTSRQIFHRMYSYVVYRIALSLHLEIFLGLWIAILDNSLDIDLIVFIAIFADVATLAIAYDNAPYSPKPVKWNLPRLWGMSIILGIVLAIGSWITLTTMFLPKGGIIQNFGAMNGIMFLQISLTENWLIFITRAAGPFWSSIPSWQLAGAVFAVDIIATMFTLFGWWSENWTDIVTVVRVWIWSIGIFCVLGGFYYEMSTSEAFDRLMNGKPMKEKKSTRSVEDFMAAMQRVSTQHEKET

| SMILES | IC50 (S. cerevisiae Pma1; [3]) [µM] | EC50 (Hep-G2 cells; [4]) [µM] | MIC ([1]; Aspergillus flavus, Table 3) [µM] | MIC [2, 5] [µM] | IC50 (S. cerevisiae; [6]) [µM] | IC50 (S. cerevisiae Pma1; [7]) [µM] | further results |
| --- | --- | --- | --- | --- | --- | --- | --- |
| COc1ccc(-c2cc(C(=O)Nc3ccc4c(c3)OCCO4)c3ccccc3n2)c(OC)c1 [Compound 8] | 6.9 ± 2 | – | – | – | – | – | – |
| COc1cccc(Nc2nc(Cl)nc(Nc3cccc(OC)c3)n2)c1 [Compound 9] | 9.2 ± 1 | – | – | – | – | – | – |
| CCN(CC)CCCNc1nc(SC)nc2c1sc1nc(-c3ccccc3)c3c(c12)CCC3 [Compound 19] | – | 24.2 ± 0.5 | 12 (≈ 5.73 µg/mL) | 3.7 (≈ 1.77 µg/mL) | 2.3 ± 0.1 | 7.3 ± 1 | Toxicity window between C. albicans and Hep-G2 cells (Hep-G2 cells; human, 24 h): 3 fold; Selectivity toward Pma1 than toward SERCA or Na^+,K^+-ATPase (S. cerevisiae Pma1): no selectivity |
| CCc1nc2sc3c(NCCCN(C)C)ncnc3c2c2c1CCCC2 [Compound 17] | – | 5.8 ± 1.1 | > 150 | 47 (≈ 17.4 µg/mL) | 39.6 ± 10.3 | 107 ± 18.2 | IC50 (S. cerevisiae Pma1; [8]): 107 µM |
| CCOc1ccc2nc3cc(NC(=O)c4cccc(Br)c4)ccc3c(N)c2c1 [Compound 5] | – | – | – | – | – | – | IC50 (S. cerevisiae Pma1; [8]): < 25 µM; IC50 (S. cerevisiae Pma1; [9]): 4.4 ± 0.6 µM |
| Oc1cccc(Nc2nc(-c3ccc(Cl)c(Cl)c3)cs2)c1 [Compound 7] | – | – | – | – | – | – | IC50 (S. cerevisiae Pma1; [8]): < 25 µM; IC50 (S. cerevisiae Pma1; [9]): 5.5 ± 0.3 µM |
| COc1ccc(-c2cc(C(=O)Nc3ccc(C(C)C)cc3)c3ccccc3n2)c(OC)c1 [Compound 3] | 2.5 ± 2.5 | – | – | – | – | – | – |
| CC1CCCCN1CC(O)Cn1c(-c2ccccc2)c(-c2ccccc2)c2ccc3ccccc3c21 (stereo not drawn) [Compound 4] | – | – | – | – | – | – | IC50 (S. cerevisiae Pma1; [9]): 3.7 ± 0.7 µM |
| CN(C)CCCNc1ncnc2c1sc1nc(N3CCCCC3)c3c(c12)CCCC3 [Compound 16] | – | 2.6 ± 0.9 | 47 (≈ 20 µg/mL) | 3.2 (≈ 1.36 µg/mL) | 7.6 ± 3.4 | 7.8 ± 0.6 | Selectivity toward Pma1 than toward SERCA or Na^+,K^+-ATPase (S. cerevisiae Pma1): no selectivity |
| CCCCc1nc2sc3c(NCCCN(C)C)ncnc3c2c2c1CCCC2 [Compound 14] | 13.7 ± 2 | 2.3 | 75 (≈ 29.8 µg/mL) | 7.5 (≈ 2.98 µg/mL) | 11.2 ± 2.7 | 13.7 ± 2 | Selectivity for Pma1 over SERCA (S. cerevisiae Pma1): 3 fold |
| O=c1c2ccccc2[se]n1-c1ccccc1 [Ebselen, reference compound] | – | 10.7 ± 7 | 24 (≈ 6.58 µg/mL) | 7.5 (≈ 2.06 µg/mL) | 7.6 | – | – |
| O=C1/C(=C/c2ccc(-c3cc(Cl)ccc3Cl)o2)C=C(c2ccccc2)N1c1ccccc1O [Compound 1] | – | – | – | – | – | – | IC50 (S. cerevisiae Pma1; [9]): 0.04 ± 0.035 µM |
| CCCCOc1ccc(C2C(C#N)=C(N)Oc3cc(O)ccc32)cc1 (stereo not drawn) [Compound 11] | 12.8 ± 5 | – | – | – | – | – | – |
| N=C(N)NCCC[C@@H](N)C(=O)N[C@H](CCCNC(=N)N)C(=O)N[C@H](CCCNC(=N)N)C(=O)N[C@H](Cc1ccccc1)C(=O)N[C@H](Cc1c[nH]c2ccccc12)C(=O)N[C@H](Cc1c[nH]c2ccccc12)C(=O)N[C@H](Cc1ccccc1)C(=O)N[C@H](CCCNC(=N)N)C(=O)N[C@H](CCCNC(=N)N)C(=O)N[C@H](CCCNC(=N)N)C(N)=O [BM2, reference compound] (HELM PEPTIDE1{[dR].[dR].[dR].[dF].[dW].[dW].[dF].[dR].[dR].[dR].[am]}$$$$V2.0) | – | – | – | – | – | 1.2 ± 0.1 | Effect on mammalian Hep-G2 cells (Hep-G2 cells): no effect; EC50 (Hep-G2 cells; 24 h): > 100 µM; MIC ([1]; ATCC MYA-1005): >150 µM; MIC ([2]; ATCC 9763): 4.7 µM (≈ 7.62 µg/mL); Selectivity for Pma1 over Na^+,K^+-ATPase (S. cerevisiae Pma1): 8 fold |
| Cc1c(-c2ccccc2)[o+]c2ccccc2c1C#Cc1ccccc1 [Compound 6] | – | – | – | – | – | – | IC50 (S. cerevisiae Pma1; [9]): 5 ± 3 µM |
| [O]=[V]([O-])([O-])[O-] [Vanadate, reference compound] | – | – | – | – | – | 0.25 ± 0.01 | EC50 (Hep-G2 cells; 24 h, medium with 10% fetal bovine serum, XTT readout, read-out: EC50 for Hep-G2 cells at 24 h): > 500 µM; MIC ([1]; Table 3): >750 µM; MIC ([2]; Table 3): >750 µM; IC50 (S. cerevisiae): > 40 µM |
| COc1ccc(Cn2c(SCc3cc(C)ccc3C)nc3cc(OC)c(OC)cc3c2=N)cc1 [Compound 12] | 15.5 ± 8.1 | – | – | – | – | – | – |
| CCCCc1nc2sc3c(NCCCN(C)C)nc(SC)nc3c2c2c1CCC2 [Compound 15] | – | 2.8 ± 0.1 | 24 (≈ 10.3 µg/mL) | 1.5 (≈ 0.644 µg/mL) | 1.7 ± 0.1 | 5.9 ± 0.2 | Selectivity toward Pma1 than toward SERCA or Na^+,K^+-ATPase (S. cerevisiae Pma1): no selectivity |
| CN(C)CCCNc1ncnc2c1sc1nc(-c3ccccc3)c3c(c12)CCC3 [Compound 18] | – | 3.6 ± 1.1 | > 75 | 24 (≈ 9.69 µg/mL) | 12.5 ± 1.1 | 18.5 ± 4.3 | Selectivity for Pma1 over Na^+,K^+-ATPase (S. cerevisiae Pma1): 4 fold; Selectivity for Pma1 over SERCA (S. cerevisiae Pma1): 3 fold |

— publication PMC5487681, “Identification of Antifungal H^+-ATPase Inhibitors with Effect on Plasma Membrane Potential” (Antimicrobial Agents and Chemotherapy, 2017)
